Values joined by “and” are separate entries in the source; they are usually repeats but may differ in a detail not shown here. Equal values may be shown once.
Experiments:
[1] = Cytotoxicity assay (CellTiter-Glo, 72 h), Jurkat; type: cell-based; conditions: human, Jurkat cells (T lymphoma)
Experimental: (§1) Jurkat cells were cultured in RPMI1640 medium supplemented with 10% foetal bovine serum, penicillin (50 U/ml), streptomycin (50 μg/ml), and Glutamax. SKOV-3 cells were cultured in DMEM medium supplemented with 10% fetal bovine serum, penicillin (50 U/ml), and streptomycin (50 μg/ml). MESO-1 cells were cultured in RPMI1640 medium supplemented with 10% fetal bovine serum, penicillin (50 U/ml), and streptomycin (50 μg/ml). All cell lines were seeded in a 384-well plate at a density of 1000 cells/well in 20 μl of media and incubated at 37 °C in a humidified incubator with 5% CO2. After 4 h, 2-fold dilution samples resolved in DMSO were added to the cell culture at the concentration of 0.5% (0.1 μl) and incubated for 72 h. Cell viabilities were measured using a CellTiter-Glo luminescent cell viability assay and EnVision multilabel plate reader.

T lymphoma Jurkat cells = test: Cytotoxicity assay (CellTiter-Glo, 72 h), Jurkat; type: cell-based; conditions: raw data (replicates)
Experimental: as §1

[2] = Cytotoxicity assay (CellTiter-Glo, 72 h), SKOV-3; type: cell-based, human; conditions: human
Experimental: as §1

CO[C@H]1C[C@@H]2CC[C@@H](C)[C@@](O)(O2)C(=O)C(=O)N2CCCC[C@H]2C(=O)O[C@H]([C@H](C)C[C@@H]2CC[C@@H](O)[C@H](OC)C2)CC(=O)[C@H](C)/C=C(\C)[C@@H](O)[C@@H](OC)C(=O)[C@H](C)C[C@H](C)/C=C/C=C/C=C/1C [Compound 1, rapamycin, reference compound]
viability at 72 h ([1]; 72 h, read-out: Plateau level of cell viability in the dose-response curve): ~25%
viability at 72 h, 9.53674e-05 uM ([1]; conc 9.53674e-5 uM, raw data (replicates)): 51.5%
viability at 72 h, 0.000190735 uM ([1]; conc 0.000190735 uM, raw data (replicates)): 40.1%
viability at 72 h, 0.00038147 uM ([1]; conc 0.00038147 uM, raw data (replicates)): 41%
viability at 72 h, 0.000762939 uM ([1]; conc 0.000762939 uM, raw data (replicates)): 32.5%
viability at 72 h, 0.00152588 uM ([1]; conc 0.00152588 uM, raw data (replicates)): 100%
viability at 72 h, 0.00305176 uM ([1]; conc 0.00305176 uM, raw data (replicates)): 41.9%
viability at 72 h, 0.00610352 uM ([1]; conc 0.00610352 uM, raw data (replicates)): 30.7%
viability at 72 h, 0.012207 uM ([1]; conc 0.012207 uM, raw data (replicates)): 28.3%
viability at 72 h, 0.0244141 uM ([1]; conc 0.0244141 uM, raw data (replicates)): 25.3%
viability at 72 h, 0.0488281 uM ([1]; conc 0.0488281 uM, raw data (replicates)): 24.5%
viability at 72 h, 0.0976562 uM ([1]; conc 0.0976562 uM, raw data (replicates)): 24%
viability at 72 h, 0.195312 uM ([1]; conc 0.195312 uM, raw data (replicates)): 24.4%
viability at 72 h, 0.390625 uM ([1]; conc 0.390625 uM, raw data (replicates)): 23.8%
viability at 72 h, 0.78125 uM ([1]; conc 0.78125 uM, raw data (replicates)): 23.7%
viability at 72 h, 1.5625 uM ([1]; conc 1.5625 uM, raw data (replicates)): 23.8%
viability at 72 h, 3.125 uM ([1]; conc 3.125 uM, raw data (replicates)): 23.9%
viability at 72 h, 6.25 uM ([1]; conc 6.25 uM, raw data (replicates)): 20.6%
viability at 72 h, 12.5 uM ([1]; conc 12.5 uM, raw data (replicates)): 18.3%
viability at 72 h, 25 uM ([1]; conc 25 uM, raw data (replicates)): 7.7%
Jurkat viability (%) (T lymphoma Jurkat cells; conc 9.53674e-5 uM): 52.8% and 57.4%
Jurkat viability (%) (T lymphoma Jurkat cells; conc 0.000190735 uM): 35.2% and 40.4%
Jurkat viability (%) (T lymphoma Jurkat cells; conc 0.00038147 uM): 39.9% and 44.6%
Jurkat viability (%) (T lymphoma Jurkat cells; conc 0.000762939 uM): 31.7%
Jurkat viability (%) (T lymphoma Jurkat cells; conc 0.00152588 uM): 102.7% and 105.0%
Jurkat viability (%) (T lymphoma Jurkat cells; conc 0.00305176 uM): 37.4%
Jurkat viability (%) (T lymphoma Jurkat cells; conc 0.00610352 uM): 31.8% and 34.7%
Jurkat viability (%) (T lymphoma Jurkat cells; conc 0.012207 uM): 28.7% and 28.4%
Jurkat viability (%) (T lymphoma Jurkat cells; conc 0.0244141 uM): 27.2% and 27.1%
Jurkat viability (%) (T lymphoma Jurkat cells; conc 0.0488281 uM): 23.4%
Jurkat viability (%) (T lymphoma Jurkat cells; conc 0.0976562 uM): 26.6% and 24.6%
Jurkat viability (%) (T lymphoma Jurkat cells; conc 0.195312 uM): 24.1% and 25.5%
Jurkat viability (%) (T lymphoma Jurkat cells; conc 0.390625 uM): 24.1% and 24.6%
Jurkat viability (%) (T lymphoma Jurkat cells; conc 0.78125 uM): 24.2%
Jurkat viability (%) (T lymphoma Jurkat cells; conc 1.5625 uM): 22.7% and 24.6%
Jurkat viability (%) (T lymphoma Jurkat cells; conc 3.125 uM): 21.8% and 23.2%
Jurkat viability (%) (T lymphoma Jurkat cells; conc 6.25 uM): 22.0% and 21.9%
Jurkat viability (%) (T lymphoma Jurkat cells; conc 12.5 uM): 19.2%
Jurkat viability (%) (T lymphoma Jurkat cells; conc 25 uM): 6.4% and 6.3%
Jurkat viability (%) (T lymphoma Jurkat cells; conc 50 uM): 0.5% and 0.178% and 0.2%
viability at 72 h ([2]; SKOV-3 cells (ovarian adenocarcinoma), SKOV-3 cells, 72 h, read-out: Plateau level of cell viability in the dose-response curve): ~60%
viability at 72 h, 9.53674e-05 uM ([2]; SKOV-3 cells (ovarian adenocarcinoma), conc 9.53674e-5 uM, raw replicate data, read-out: SKOV3 viability (%)): 78.7%
viability at 72 h, 0.000190735 uM ([2]; SKOV-3 cells (ovarian adenocarcinoma), conc 0.000190735 uM, raw replicate data, read-out: SKOV3 viability (%)): 70.9%
viability at 72 h, 0.00038147 uM ([2]; SKOV-3 cells (ovarian adenocarcinoma), conc 0.00038147 uM, raw replicate data, read-out: SKOV3 viability (%)): 75.1%
viability at 72 h, 0.000762939 uM ([2]; SKOV-3 cells (ovarian adenocarcinoma), conc 0.000762939 uM, raw replicate data, read-out: SKOV3 viability (%)): 62.9%
viability at 72 h, 0.00152588 uM ([2]; SKOV-3 cells (ovarian adenocarcinoma), conc 0.00152588 uM, raw replicate data, read-out: SKOV3 viability (%)): 110%
viability at 72 h, 0.00305176 uM ([2]; SKOV-3 cells (ovarian adenocarcinoma), conc 0.00305176 uM, raw replicate data, read-out: SKOV3 viability (%)): 70.7%
viability at 72 h, 0.00610352 uM ([2]; SKOV-3 cells (ovarian adenocarcinoma), conc 0.00610352 uM, raw replicate data, read-out: SKOV3 viability (%)): 64.7%
viability at 72 h, 0.012207 uM ([2]; SKOV-3 cells (ovarian adenocarcinoma), conc 0.012207 uM, raw replicate data, read-out: SKOV3 viability (%)): 59.4%
viability at 72 h, 0.0244141 uM ([2]; SKOV-3 cells (ovarian adenocarcinoma), conc 0.0244141 uM, raw replicate data, read-out: SKOV3 viability (%)): 57.9%
viability at 72 h, 0.0488281 uM ([2]; SKOV-3 cells (ovarian adenocarcinoma), conc 0.0488281 uM, raw replicate data, read-out: SKOV3 viability (%)): 61.1%
viability at 72 h, 0.0976562 uM ([2]; SKOV-3 cells (ovarian adenocarcinoma), conc 0.0976562 uM, raw replicate data, read-out: SKOV3 viability (%)): 61.7%
viability at 72 h, 0.195312 uM ([2]; SKOV-3 cells (ovarian adenocarcinoma), conc 0.195312 uM, raw replicate data, read-out: SKOV3 viability (%)): 59.4%
viability at 72 h, 0.390625 uM ([2]; SKOV-3 cells (ovarian adenocarcinoma), conc 0.390625 uM, raw replicate data, read-out: SKOV3 viability (%)): 59.7%
viability at 72 h, 12.5 uM ([2]; SKOV-3 cells (ovarian adenocarcinoma), conc 12.5 uM, raw replicate data, read-out: SKOV3 viability (%)): 57.5%
viability at 72 h, 25 uM ([2]; SKOV-3 cells (ovarian adenocarcinoma), conc 25 uM, raw replicate data, read-out: SKOV3 viability (%)): 54.8%
viability at 72 h, 0.78125 uM ([2]; SKOV-3 ovarian adenocarcinoma cells, conc 0.78125 uM, raw replicate data, read-out: SKOV3 viability (%)): 55.3%
viability at 72 h, 1.5625 uM ([2]; SKOV-3 ovarian adenocarcinoma cells, conc 1.5625 uM, raw replicate data, read-out: SKOV3 viability (%)): 58.8%
viability at 72 h, 3.125 uM ([2]; SKOV-3 ovarian adenocarcinoma cells, conc 3.125 uM, raw replicate data, read-out: SKOV3 viability (%)): 57.4%
viability at 72 h, 6.25 uM ([2]; SKOV-3 ovarian adenocarcinoma cells, conc 6.25 uM, raw replicate data, read-out: SKOV3 viability (%)): 63.1%

— publication PMC7419507, “In vitro Cas9-assisted editing of modular polyketide synthase genes to produce desired natural product derivatives” (Nature Communications, 2020)
